# In ChEMBL document CHEMBL5150017, “Mechanism of Action and Structure-Activity Relationship of α-Conotoxin Mr1.1 at the Human α9α10 Nicotinic Acetylcholine Receptor” (J Med Chem, 2022):
# Active and inactive are the calls of the source. The calls are words filed in the database; no cut-off is given here. Positions of bridges follow the written chain, without caps; N, C: chain ends. Non-standard residues stand in square brackets, D forms with d. Residues, ends and D or L forms follow the SMILES beside them. ξ: configuration not given here. ξDap = NCC(N)C(=O)O
# Columns and labels:
# [1] = biological target: T1, Neuronal acetylcholine receptor; alpha9/alpha10 (Homo sapiens) (UniProt Q9UGM1+Q9GZZ6); assay: Antagonist activity at human alpha9alpha10 nAChR expressed in Xenopus laevis oocytes assessed as inhibition of ACh-induced current amplitude at -80 mV holding potential at 1 uM by two-electrode voltage clamp method; format: cell-based; conditions: Oocyte
# [2] = biological target: T1, Neuronal acetylcholine receptor; alpha9/alpha10 (Homo sapiens); assay: Antagonist activity at human alpha9alpha10 nAChR expressed in Xenopus laevis oocytes assessed as inhibition of ACh-induced current amplitude at -80 mV holding potential at 10 uM by two-electrode voltage clamp method; format: cell-based; conditions: Oocyte, filed as antagonist
# [3] = biological target: T1, Neuronal acetylcholine receptor; alpha9/alpha10 (Homo sapiens); assay: Antagonist activity at human alpha9alpha10 nAChR expressed in Xenopus laevis oocytes assessed as inhibition of ACh-induced current amplitude at -80 mV holding potential at 100 nM by two-electrode voltage clamp method; format: cell-based; conditions: Oocyte, filed as antagonist
# [4] = biological target: T2, Neuronal acetylcholine receptor; alpha3/beta2 (Homo sapiens, UniProt P17787+P32297); assay: Antagonist activity at human alpha3beta2 nAChR expressed in Xenopus laevis oocytes assessed as inhibition of ACh-induced current amplitude at -80 mV holding potential at 1 uM by two-electrode voltage clamp method; format: cell-based; conditions: Oocyte, filed as antagonist
# [5] = biological target: Neuronal acetylcholine receptor; alpha9/alpha10 (Homo sapiens, UniProt Q9GZZ6+Q9UGM1); assay: Antagonist activity at human alpha9alpha10 nAChR expressed in Xenopus laevis oocytes assessed as inhibition of ACh-induced current amplitude at -80 mV holding potential by two-electrode voltage clamp method; format: cell-based, Oocyte
# [6] = biological target: T2, Neuronal acetylcholine receptor; alpha3/beta2; assay: Antagonist activity at human alpha3beta2 nAChR expressed in Xenopus laevis oocytes assessed as inhibition of ACh-induced current amplitude at -80 mV holding potential by two-electrode voltage clamp method; format: cell-based, Oocyte
# [7] = Antagonist activity at rat alpha9alpha10 nAChR expressed in Xenopus laevis oocytes assessed as inhibition of ACh-induced current amplitude by two-electrode voltage clamp method; format: cell-based; conditions: Oocyte
# [8] = biological target: T2, Neuronal acetylcholine receptor; alpha3/beta2; assay: Antagonist activity at human alpha3beta2 nAChR expressed in Xenopus laevis oocytes assessed as inhibition of ACh-induced current amplitude at -80 mV holding potential at 100 nM by two-electrode voltage clamp method; format: cell-based; conditions: Oocyte, filed as antagonist
# [9] = biological target: Neuronal acetylcholine receptor; alpha3/beta4 (Homo sapiens) (UniProt P30926+P32297); assay: Antagonist activity at human alpha3beta4 nAChR expressed in Xenopus laevis oocytes assessed as inhibition of ACh-induced current amplitude at -80 mV holding potential at 100 nM by two-electrode voltage clamp method; format: cell-based; conditions: Oocyte
# [10] = biological target: Neuronal acetylcholine receptor; alpha4/beta2 (Homo sapiens) (UniProt P17787+P43681); assay: Antagonist activity at human alpha4beta2 nAChR expressed in Xenopus laevis oocytes assessed as inhibition of ACh-induced current amplitude at -80 mV holding potential in presence of BAPTA-AM at 100 nM by two-electrode voltage clamp method; format: cell-based; conditions: Oocyte
# [11] = biological target: T3, Neuronal acetylcholine receptor subunit alpha-7 (Homo sapiens, UniProt P36544); assay: Antagonist activity at human alpha7 nAChR expressed in Xenopus laevis oocytes assessed as inhibition of ACh-induced current amplitude at -80 mV holding potential at 100 nM by two-electrode voltage clamp method; format: cell-based; conditions: Oocyte, filed as antagonist
# [12] = biological target: T3, Neuronal acetylcholine receptor subunit alpha-7; assay: Antagonist activity at human alpha7 nAChR expressed in Xenopus laevis oocytes assessed as inhibition of ACh-induced current amplitude at -80 mV holding potential by two-electrode voltage clamp method; format: cell-based, Oocyte
# [13] = biological target: T3, Neuronal acetylcholine receptor subunit alpha-7; assay: Antagonist activity at human alpha7 nAChR expressed in Xenopus laevis oocytes assessed as inhibition of ACh-induced current amplitude at -80 mV holding potential in presence of BAPTA-AM by two-electrode voltage clamp method; format: cell-based, Oocyte
# [14] = species: Rattus norvegicus; assay: Analgesic activity in chronic constriction injury-induced mechanical pain rat model assessed as increase in paw withdrawal latency measured after 24 hrs; format: functional, organism-based; conditions: DDE = dose-dependent effect
# [15] = test system: Mus musculus; assay: Analgesic activity in chronic constriction injury-induced mechanical pain mouse model assessed as increase in paw withdrawal latency at 25 ug/kg measured after 24 hrs; format: functional, organism-based; conditions: dose 25.0 µg/kg
# [16] = test system: Mus musculus; assay: Analgesic activity in chronic constriction injury-induced mechanical pain mouse model assessed as increase in paw withdrawal latency at 0.5 ug/kg measured after 12 hrs; format: functional, organism-based; conditions: dose 5.0 µg/kg
# [17] = test system: Mus musculus; assay: Analgesic activity in chronic constriction injury-induced mechanical pain mouse model assessed as increase in paw withdrawal latency at 2.5 ug/kg measured after 12 hrs; format: functional, organism-based; conditions: dose 2.5 µg/kg
# [18] = Toxicity in mouse assessed as abnormal motor behavior; conditions: in vivo
# T3 sequence (P36544 whole entry): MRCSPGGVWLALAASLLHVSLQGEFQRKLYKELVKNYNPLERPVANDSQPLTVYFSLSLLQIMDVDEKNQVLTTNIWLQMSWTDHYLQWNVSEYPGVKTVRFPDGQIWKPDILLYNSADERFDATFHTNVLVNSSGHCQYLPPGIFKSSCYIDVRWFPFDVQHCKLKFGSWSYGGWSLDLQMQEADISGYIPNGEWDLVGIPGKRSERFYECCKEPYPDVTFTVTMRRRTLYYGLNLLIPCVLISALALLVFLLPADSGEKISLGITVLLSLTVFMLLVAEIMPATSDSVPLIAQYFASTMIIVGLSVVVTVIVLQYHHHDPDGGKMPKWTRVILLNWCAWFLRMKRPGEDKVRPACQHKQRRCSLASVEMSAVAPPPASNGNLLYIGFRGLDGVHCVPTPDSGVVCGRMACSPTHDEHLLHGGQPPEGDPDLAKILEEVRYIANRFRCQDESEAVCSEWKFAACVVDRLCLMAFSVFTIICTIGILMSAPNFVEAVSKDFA
# Chain of Neuronal acetylcholine receptor; alpha9/alpha10 (Q9UGM1 whole entry): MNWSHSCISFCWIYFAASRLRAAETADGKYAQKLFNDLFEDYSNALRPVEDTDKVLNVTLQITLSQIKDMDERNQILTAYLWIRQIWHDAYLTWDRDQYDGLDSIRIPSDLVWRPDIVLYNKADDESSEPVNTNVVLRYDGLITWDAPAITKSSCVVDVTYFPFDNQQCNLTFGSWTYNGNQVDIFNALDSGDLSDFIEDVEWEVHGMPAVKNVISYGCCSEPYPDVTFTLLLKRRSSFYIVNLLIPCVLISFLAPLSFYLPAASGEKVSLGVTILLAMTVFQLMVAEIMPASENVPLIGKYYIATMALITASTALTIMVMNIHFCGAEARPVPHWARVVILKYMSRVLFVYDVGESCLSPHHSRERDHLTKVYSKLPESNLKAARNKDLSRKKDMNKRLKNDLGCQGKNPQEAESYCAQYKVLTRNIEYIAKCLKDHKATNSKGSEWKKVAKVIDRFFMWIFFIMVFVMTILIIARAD
# Chain of Neuronal acetylcholine receptor; alpha9/alpha10 (Q9GZZ6 whole entry): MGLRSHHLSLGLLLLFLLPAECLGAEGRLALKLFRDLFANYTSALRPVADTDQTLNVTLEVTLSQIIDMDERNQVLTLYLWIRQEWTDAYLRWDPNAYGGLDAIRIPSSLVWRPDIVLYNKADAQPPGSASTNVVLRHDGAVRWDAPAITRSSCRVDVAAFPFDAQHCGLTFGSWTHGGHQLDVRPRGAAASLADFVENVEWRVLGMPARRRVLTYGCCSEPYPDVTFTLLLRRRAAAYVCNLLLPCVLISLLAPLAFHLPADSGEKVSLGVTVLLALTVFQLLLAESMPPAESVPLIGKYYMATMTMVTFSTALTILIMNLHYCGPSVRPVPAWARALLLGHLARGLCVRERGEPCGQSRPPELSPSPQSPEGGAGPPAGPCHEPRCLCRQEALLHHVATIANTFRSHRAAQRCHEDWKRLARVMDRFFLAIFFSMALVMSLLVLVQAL
# T2 sequence (P17787 whole entry): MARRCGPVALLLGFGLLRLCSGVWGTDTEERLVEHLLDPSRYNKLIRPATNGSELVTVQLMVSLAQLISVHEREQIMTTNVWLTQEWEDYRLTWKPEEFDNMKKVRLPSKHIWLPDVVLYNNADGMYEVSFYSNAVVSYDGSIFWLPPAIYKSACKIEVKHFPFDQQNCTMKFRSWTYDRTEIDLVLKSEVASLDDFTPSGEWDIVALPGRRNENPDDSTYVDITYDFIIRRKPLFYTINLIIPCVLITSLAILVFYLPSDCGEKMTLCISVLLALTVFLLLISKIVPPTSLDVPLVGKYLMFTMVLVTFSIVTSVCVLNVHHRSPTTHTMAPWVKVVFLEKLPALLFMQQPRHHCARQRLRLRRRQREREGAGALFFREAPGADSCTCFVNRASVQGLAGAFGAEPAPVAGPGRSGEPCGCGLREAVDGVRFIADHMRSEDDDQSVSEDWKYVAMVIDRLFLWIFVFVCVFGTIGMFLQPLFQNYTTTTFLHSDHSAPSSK
# T2 sequence (P32297 whole entry): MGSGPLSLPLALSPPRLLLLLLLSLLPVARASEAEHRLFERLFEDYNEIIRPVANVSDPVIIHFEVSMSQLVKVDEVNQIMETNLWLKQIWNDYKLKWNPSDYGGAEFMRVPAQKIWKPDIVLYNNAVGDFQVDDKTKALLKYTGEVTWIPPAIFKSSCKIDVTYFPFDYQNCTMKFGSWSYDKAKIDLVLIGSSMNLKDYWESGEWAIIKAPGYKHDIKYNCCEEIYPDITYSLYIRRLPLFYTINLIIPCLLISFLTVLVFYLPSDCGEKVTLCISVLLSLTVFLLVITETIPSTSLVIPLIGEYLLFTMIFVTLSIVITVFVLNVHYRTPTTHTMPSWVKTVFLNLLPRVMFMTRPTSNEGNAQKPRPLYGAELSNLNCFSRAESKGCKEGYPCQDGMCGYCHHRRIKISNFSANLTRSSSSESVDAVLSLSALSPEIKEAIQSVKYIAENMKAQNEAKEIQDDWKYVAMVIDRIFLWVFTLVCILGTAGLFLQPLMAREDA
structure (smiles),measurement,setting,value
"CC[C@H](C)[C@@H]1NC(=O)[C@H](CC(=O)O)NC(=O)[C@@H]2CCCN2C(=O)[C@H](Cc2cnc[nH]2)NC(=O)[C@H](CC(N)=O)NC(=O)[C@H](C(C)C)NC(=O)[C@H](CO)NC(=O)[C@@H]2CSSC[C@H](NC(=O)CN)C(=O)N[C@@H](CSSC[C@@H](C(N)=O)NC1=O)C(=O)N[C@@H](CO)C(=O)N[C@@H](Cc1cnc[nH]1)C(=O)N1CCC[C@H]1C(=O)N[C@@H](C)C(=O)N2 (H-GCCSHPACSVNHPDIC-NH2; disulfide 2-8, 3-16)",inhibition,[1],20%
same,inhibition,[1]; filed as antagonist,40%
"CC[C@H](C)[C@@H]1NC(=O)[C@H](CCC(=O)O)NC(=O)[C@@H]2CCCN2C(=O)[C@H](CC(N)=O)NC(=O)[C@H](CC(N)=O)NC(=O)[C@H](C(C)C)NC(=O)[C@H](CO)NC(=O)[C@@H]2CSSC[C@H](NC(=O)CN)C(=O)N[C@@H](CSSC[C@@H](C(N)=O)NC1=O)C(=O)N[C@@H](CO)C(=O)N[C@@H](Cc1cnc[nH]1)C(=O)N1CCC[C@H]1C(=O)N[C@@H](C)C(=O)N2 (H-GCCSHPACSVNNPEIC-NH2; disulfide 2-8, 3-16)",inhibition,[1],20%
same,inhibition,[1]; filed as antagonist,40%
"CC[C@H](C)[C@@H]1NC(=O)[C@H](CC(=O)O)NC(=O)[C@@H]2CCCN2C(=O)[C@H](CC(N)=O)NC(=O)[C@H](CC(N)=O)NC(=O)[C@H](C(C)C)NC(=O)[C@H](C)NC(=O)[C@@H]2CSSC[C@H](NC(=O)CN)C(=O)N[C@@H](CSSC[C@@H](C(N)=O)NC1=O)C(=O)N[C@@H](CO)C(=O)N[C@@H](Cc1cnc[nH]1)C(=O)N1CCC[C@H]1C(=O)N[C@@H](C)C(=O)N2 (H-GCCSHPACAVNNPDIC-NH2; disulfide 2-8, 3-16)",inhibition,[2],Active
"CC[C@H](C)[C@@H]1NC(=O)[C@H](CC(=O)O)NC(=O)[C@@H]2CCCN2C(=O)[C@H](CC(N)=O)NC(=O)[C@H](CC(N)=O)NC(=O)[C@H](C(C)C)NC(=O)C(CN)NC(=O)[C@@H]2CSSC[C@H](NC(=O)CN)C(=O)N[C@@H](CSSC[C@@H](C(N)=O)NC1=O)C(=O)N[C@@H](CO)C(=O)N[C@@H](Cc1cnc[nH]1)C(=O)N1CCC[C@H]1C(=O)N[C@@H](C)C(=O)N2 (some centres not stated) (H-GCCSHPAC[ξDap]VNNPDIC-NH2; disulfide 2-8, 3-16)",inhibition,[3],80%
"CC[C@H](C)[C@@H]1NC(=O)[C@H](CC(=O)O)NC(=O)[C@@H]2CCCN2C(=O)[C@H](CC(N)=O)NC(=O)[C@H](CC(N)=O)NC(=O)[C@H](C(C)C)NC(=O)[C@H](CO)NC(=O)[C@@H]2CSSC[C@H](NC(=O)CN)C(=O)N[C@@H](CSSC[C@@H](C(N)=O)NC1=O)C(=O)NC(CN)C(=O)N[C@@H](Cc1cnc[nH]1)C(=O)N1CCC[C@H]1C(=O)N[C@@H](C)C(=O)N2 (some centres not stated) (H-GCC[ξDap]HPACSVNNPDIC-NH2; disulfide 2-8, 3-16)",inhibition,[4],> 95%
same,IC50,[5],4 nM
same,IC50,[6],20.6 nM
same,IC50,[7],1.7 nM
same,inhibition,[3],> 85%
same,inhibition,[8],85%
same,inhibition,[9],5%
same,inhibition,[10],5%
same,inhibition,[11],90%
same,IC50,[12],259 nM
same,IC50,[13],265 nM
same,Activity,[14],Dde
same,Activity,[15],Active
same,Activity,[16],Active
same,Activity,[17],Active
same,Activity,[18],Non-Toxic
